Reference: paper PMC4569415, “Pro-Oxidant Activity of Amine-Pyridine-Based Iron Complexes Efficiently Kills Cancer and Cancer Stem-Like Cells” (PLoS ONE, 2015)
Several values for one entry are separate records, joined by “and”; a condition that tells them apart may be missing. Identical values can stand only once. Like-named read-outs stand apart in the source and are kept apart here.

Columns and labels:
[1] = tested on: human leukemia, lymphoma and glioma cancer cells; assay: MTT cell viability at 10 μmol/L, cell line panel; assay type: cell-based; details: 48 h
Procedure: (§1) The cytotoxic activity of the compounds was determined by MTT reduction assay as described. Compounds were diluted in Milli-Q water to obtain 1 mmol/L stock solutions. Appropriate aliquots of these solutions were diluted in the corresponding cell culture medium to obtain the final working concentrations. Aliquots of 5000 1BR3G cells, 6000 MCF-7, 6000 PC-3 cells, 10 000 CAPAN-1 cells, 4000 MCF 10A cells, 4000 HMLE cells or 4000 CCD-18Co cells were seeded in 96-well plates, 24 h prior to the treatments. Hematological cell lines were seeded at 400 000 cells/mL. Cells were treated with the corresponding compound at concentrations ranging from 0 to 100 μmol/L for 48 h. Three replicates for each compound were used. The IC50 was established for each compound by standard non-linear regression and curve fitting using GraphPad Prism (Graph Pad software Inc., La Jolla, CA, USA).
(§2) Fig 2 Cell viability assay. (A) Cytotoxic activity of compounds 1, 2, and 5 against cancer cells. The indicated cell lines were treated for 48 h with ligands (10 μmol/L) and cell viability was measured with the MTT assay. Data represents the percentage of viable cells relative to untreated cells (control). (B) Cytotoxicity of doxorubicin and compounds 1, 2 and 5 against CS-like cells. CS-like HMLER-shEcad cells and non-CS-like HMLER isogenic parental cells were treated for 48 h with graded concentrations of doxorubicin, 1, 2 and 5. Cell viability was measured with the MTT assay. For each treatment, the percentage of viable cells relative to untreated cells is indicated. Data represents the mean±SD of 3 independent experiments performed in triplicate.

Hemolytic assay = assay type: cell-based; details: human, erythrocyte suspension of fresh human blood (5% vol/vol)
Procedure: The hemolytic activity of the compounds at 100 μmol/L was evaluated by determining hemoglobin release from erythrocyte suspensions of fresh human blood (5% vol/vol) as described.

[2] = tested on: supercoiled pUC18 plasmid DNA; assay: DNA cleavage by agarose gel electrophoresis; assay type: biochemical; details: 25 μM, 1 h, 37°C
Procedure: DNA cleavage was monitored by agarose gel electrophoresis. A stock solution of pUC18 DNA was freshly prepared in Milli-Q water at a concentration of […] (1512 μmol/L nucleotides; 756 μmol/L bp). Reactions were performed by mixing 0.5 μl of pUC18 with appropriate aliquots of the compounds and 1 μL of activating agent solution (35% wt/vol H2O2 in H2O). Cacodylate buffer (0.1 M, pH 6.0) was added to the mixture to give a final volume of 20 μl. The final concentration of pUC18 DNA was 37.8 μmol/L in nucleotides (18.9 μmol/L bp). Samples were incubated for 1 h at 37°C; reactions were quenched by adding 6 μL of a buffer solution consisting of bromophenol blue (0.25%), xylene cyanol (0.25%), and glycerol (30%). Subsequently, the samples were subjected to electrophoresis in 0.8% agarose gels in 0.5×TBE buffer (0.045 mol/L Tris, 0.045 mol/L boric acid, and 1 mmol/L EDTA) at 100 V for 1 h and 40 min. Gels were stained with ethidium bromide (10 mg/mL in TBE) for 15 min and visualized under UV transillumination. DNA bands were captured using the ProgRes CapturePro 2.7 system and the intensity of each band was quantified with the GelQuant version 2.7 software (DNR Bio-Imaging Systems, Jerusalem, Israel) using a correction factor of 1.31 to compensate for the reduced ethidium bromide uptake of supercoiled plasmid pUC18 DNA [47]. The proportion of different forms of plasmid DNA was established for each treatment. To test the involvement of ROS in strand scission and possible complex–DNA interaction sites, various ROS scavengers and groove binders were added to the reaction mixtures. The scavengers used were Tiron (10 mmol/L), sodium azide (0.4 mol/L), and dimethyl sulfoxide (DMSO, 3 μL). The groove binders used were methyl green (20 mmol/L) and Hoechst (40 μmol/L).

MCF-7 cells [3] = assay: Colony formation (clonogenic) assay; assay type: cell-based, human; details: 10 μmol/L
Procedure: MCF-7 cells were seeded in 12-well plates. […] Subsequently, cells were washed with PBS, collected with trypsin and plated at low density (3000 cells in a […]). Cells were allowed to divide and form colonies for 7–10 days; after which, colonies were fixed and stained with 2% methylene blue in 50% ethanol. The number of colonies in each plate was determined using the Alpha Innotech Imaging system (Alpha Innotech, San Leandro, CA).

CAPAN-1 cells [4] = assay: ROS measurement with H2DCFDA; assay type: cell-based, human; details: for fold increase of ROS levels: 5 h; for H2DCFDA fluorescence (ROS): 5.8 at 0 μmol/L; for reduction of compound-induced ROS levels by NAC: CAPAN-1, NAC 5 mmol/L
Procedure: Cellular ROS content was determined using the 2′,7′-dichlorodihydrofluorescein diacetate probe (H2DCFDA). Cells were seeded in 24-well plates (50 000 cells/well) in phenol red-free DMEM 24 h prior to treatments. Cells were treated with different concentrations of compound 1, 2 and 5 (2.5, 5 or 10 μmol/L) or vehicle alone as a control, for 5 or 24 hours at 37°C. In some experiments, cells were co-treated with the compounds plus 5 mmol/L NAC. After treatments, cells were washed with PBS and incubated with 1 μmol/L H2DCF-DA in PBS for 30 minutes in the dark. After washing, cells were collected with trypsin and analyzed by flow cytometry using a FACS-Calibur flow cytometer (Becton-Dickinson®, Immunofluorometry Systems, Mountain View, CA, USA). The geometric mean fluorescence intensity of 10 000 cells was established using CellQuestTM software (Becton Dickinson). The fluorescence fold-increase versus untreated cells was determined for each treatment.

[5] = tested on: CS-like HMLER-shEcad cells; assay: MTT cytotoxicity assay in cancer stem-like cells; assay type: cell-based, human; details: Homo sapiens, 48 h
Procedure: as §1, §2

CAPAN-1 cells [6] = assay: MTT cytotoxicity assay; assay type: cell-based, human; details: for viability at 10 µM / IC50 / viability at 5 µM: Homo sapiens; for viability at 10 µM: CAPAN-1, compound 10 μmol/L; for viability at 10 µM / viability at 5 µM: read-out: CAPAN-1 cell viability; for IC50: CAPAN-1, MTT, 48 h of compound exposure; for viability at 5 µM: CAPAN-1, compound 5 μmol/L
Procedure: as §1

MCF-7 cells [7] = assay: MTT cytotoxicity assay; assay type: cell-based, human; details: for IC50: Homo sapiens, MCF7, MTT, 48 h of compound exposure
Procedure: as §1

[8] = compound 10 μmol/L, FeCl2 100 μmol/L pre-incubation
[9] = compound 5 μmol/L, pretreated with 100 μmol/L FeCl2 for 2 h

SMILES | antiproliferative activity at 10 μmol/L [1] | hemolysis at 100 µM (Hemolytic assay) [%] | Proportion of plasmid DNA Form I (supercoiled) ([2]; + H2O2) [%] | Proportion of plasmid DNA Form II (open) ([2]; + H2O2) [%] | Proportion of plasmid DNA Form I (supercoiled) ([2]; absence of H2O2) [%] | Proportion of plasmid DNA Form II (open) ([2]; absence of H2O2) [%] | reduction of colony number vs control (MCF-7 cells [3]; 3 h exposure) [%] | reduction of colony number vs control (MCF-7 cells [3]; 24 h exposure) | fold increase of ROS levels (CAPAN-1 cells [4]; CAPAN-1, 2.5 μmol/L) [fold] | fold increase of ROS levels (CAPAN-1 cells [4]; CAPAN-1, 5 μmol/L) [fold] | fold increase of ROS levels (CAPAN-1 cells [4]; CAPAN-1, 10 μmol/L) [fold] | reduction of compound-induced ROS levels by NAC (CAPAN-1 cells [4]) [%] | IC50 [5] [µM] | IC50 (CAPAN-1 cells [6]) [µM] | IC50 (MCF-7 cells [7]) [µM] | also measured
c1ccc(CN2CCC[C@H]2[C@@H]2CCCN2Cc2ccccn2)nc1 [Compound 1] | high antiproliferative activity | 0 | 52.8 | 47.2 | 84.3 | 15.7 | 0 | 57% and 56.6% | 1.73 | 2.01 | 2.61 | 31.1 | 5.3 ± 0.7 | 9.9 ± 1.01 | 7.4 ± 0.2 | reduction of colony number vs control (MCF-7 cells [3]; 5 h exposure): 18.7%; reduction of colony number vs control (MCF-7 cells [3]; 12 h exposure): 40.5%; H2DCFDA fluorescence (ROS) (CAPAN-1 cells [4]; CAPAN-1, 2.5 μmol/L, 24 h): 10.9; H2DCFDA fluorescence (ROS) (CAPAN-1 cells [4]; CAPAN-1, 5 μmol/L, 24 h): 11.79; H2DCFDA fluorescence (ROS) (CAPAN-1 cells [4]; CAPAN-1, 10 μmol/L, 24 h): 32.6; viability at 10 µM (CAPAN-1 cells [6]; presence of NAC): 45.2 ± 5.4%; viability at 10 µM (CAPAN-1 cells [6]; without NAC): 40.7 ± 6.9%; enhancement of cytotoxicity by FeCl2 pretreatment, CAPAN-1 (CAPAN-1 cells [6]; [8]): 25.5%; enhancement of cytotoxicity by FeCl2 pretreatment, MCF-7 (MCF-7 cells [7]; [8]): 58.6%
CN(C)c1ccnc(CN2CCC[C@H]2[C@@H]2CCCN2Cc2cc(N(C)C)ccn2)c1 [Compound 2] | high antiproliferative activity | 0 | 56.8 | 43.2 | 91.3 | 8.7 | 39 | almost abolished | 1.39 | 1.66 | 2.53 | 26.8 | 6.8 ± 0.1 | 6 ± 0.7 | 3.7 ± 0.4 | ROS induction with FeCl2 co-incubation (CAPAN-1 cells [4]; CAPAN-1, compound 10 μmol/L 24 h, FeCl2 100 μmol/L co-incubation): abolished ROS induction; increase in ROS levels in FeCl2-pretreated vs non-pretreated cells (CAPAN-1 cells [4]; CAPAN-1, compound 10 μmol/L 24 h, FeCl2 100 μmol/L pre-incubation): 1.5 fold; viability at 5 µM (CAPAN-1 cells [6]; absence of NAC): 23.9 ± 2.9%; viability at 5 µM (CAPAN-1 cells [6]; presence of 5 mmol/L NAC): 33.6 ± 3.8%; increase in cell survival by NAC (CAPAN-1 cells [6]; compound 5 μmol/L, 5 mmol/L NAC): 40.6%; reduction in CAPAN-1 cell viability in FeCl2-pretreated cells (CAPAN-1 cells [6]; [9]): 37.7%; reduction in MCF-7 cell viability in FeCl2-pretreated cells (MCF-7 cells [7]; [9]): 51.8%
CN1CCN(Cc2ccccn2)CCN(Cc2ccccn2)CC1 [Compound 5] | high antiproliferative activity | 0 | 53.3 | 46.7 | 92.3 | 7.7 |  | 53% |  |  |  |  | 8.6 ± 0.5 | 7.9 ± 0.5 | 7.7 ± 0.3 | intracellular ROS levels vs untreated cells (CAPAN-1 cells [4]; CAPAN-1, 10 μmol/L, 24 h): 2.4 fold; effect of NAC on cytotoxicity (CAPAN-1 cells [6]; CAPAN-1, NAC 5 mmol/L): no protective effect of NAC
